We go through 17 compounds from article PMC8122087 (Cell, 2021).

Experiment [1] relates to head-twitch response. The experiment is described as follows: Head-twitch response. The format is in vivo, mouse.
The target in experiment [2] is T1, psychLight2 (PSYLI2 cells) (Homo sapiens, UniProt P28223, DEL264-312/E264Q/I181A/I315S/INS316[…]/S314L). Format: cell-based.
Experiment [3] concerns the target psychLight1 (human 5-HT2AR-based fluorescent sensor) (Homo sapiens, UniProt P28223, DEL264-312/E264Q/I181A/I315S/INS316[…]/S314L). Format: cell-based.
For experiment [4], the system named is psychLight2. The format is cell-based, mouse.
Experiment [5] addresses psychLight2 (HEK293T cell line stably expressing psychLight2, PSYLI2) (Homo sapiens, UniProt P28223, DEL264-312/E264Q/I181A/I315S/INS316[…]/S314L). The experiment in a line: PSYLI2 high-content imaging assay, agonist mode. Format: cell-based.
In experiment [6] the target is psychLight2 (Homo sapiens, UniProt P28223, DEL264-312/E264Q/I181A/I315S/INS316[…]/S314L). As to conditions: mouse.
The subject of experiment [7] is locomotion. The experiment in a line: Locomotion assay. As to conditions: C57BL/6J mice, i.p., n = 4 mice. The format is in vivo, mouse.
Experiment [8] relates to VMAT2 heterozygous (VMAT2-HET) and WT mice. The experiment in a line: Sucrose preference test. Format: in vivo, mouse. Particulars: 15 mg/kg i.p., single administration.
Experiment [9] concerns cultured rat embryonic cortical neurons. The experiment is described as follows: Dendritogenesis in cultured rat embryonic cortical neurons. Format: cell-based. Particulars: Sholl analysis, Nmax.
In experiment [10] the test system is C57BL/6J mice. The experiment in a line: Forced swim test. Format: in vivo, mouse.
For experiment [11], the target named is T1, psychLight2 (PSYLI2 cells). Format: cell-based. This is another data set of the same source.
Experiment [12] concerns endogenous 5-HT release (psychLight2 response). On the set-up: species or system mouse. As to conditions: electrical stimulation, incubation with 50 μM.
The mark [13] stands for this setting: C57BL/6J mice, i.p., dose-response, n = 4 mice.
The mark [14] stands for this setting: 10 μM compound treatment (Fig. 4C).

The structures appear in SMILES notation. Entries after “also recorded” stand apart in the source; their conditions may differ. Counter-ions that a name gives are not always drawn. Like-named read-outs stand apart in the source and are kept apart here.

psychLight1 (human 5-HT2AR-based fluorescent sensor), sequence (P28223 1-471 with tags or gaps with the stated changes): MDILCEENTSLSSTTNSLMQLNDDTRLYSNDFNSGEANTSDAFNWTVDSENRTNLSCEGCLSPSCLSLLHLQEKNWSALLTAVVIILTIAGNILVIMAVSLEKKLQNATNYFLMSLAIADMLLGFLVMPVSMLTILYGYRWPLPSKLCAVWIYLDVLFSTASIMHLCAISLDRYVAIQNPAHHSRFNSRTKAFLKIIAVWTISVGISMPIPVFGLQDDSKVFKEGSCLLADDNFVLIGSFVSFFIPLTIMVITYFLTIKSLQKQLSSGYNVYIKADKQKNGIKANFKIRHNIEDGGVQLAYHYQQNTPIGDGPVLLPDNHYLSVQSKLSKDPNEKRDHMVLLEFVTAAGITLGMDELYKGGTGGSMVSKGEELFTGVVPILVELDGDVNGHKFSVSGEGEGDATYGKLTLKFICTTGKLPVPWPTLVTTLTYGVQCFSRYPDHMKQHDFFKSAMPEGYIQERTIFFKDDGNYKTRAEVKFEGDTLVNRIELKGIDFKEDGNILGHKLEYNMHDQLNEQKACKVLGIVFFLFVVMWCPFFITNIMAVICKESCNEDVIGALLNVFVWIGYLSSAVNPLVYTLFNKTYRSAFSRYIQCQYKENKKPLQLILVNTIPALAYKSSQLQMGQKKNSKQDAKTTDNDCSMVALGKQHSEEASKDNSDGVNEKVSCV
T1 sequence (P28223 1-471 with tags or gaps with the stated changes): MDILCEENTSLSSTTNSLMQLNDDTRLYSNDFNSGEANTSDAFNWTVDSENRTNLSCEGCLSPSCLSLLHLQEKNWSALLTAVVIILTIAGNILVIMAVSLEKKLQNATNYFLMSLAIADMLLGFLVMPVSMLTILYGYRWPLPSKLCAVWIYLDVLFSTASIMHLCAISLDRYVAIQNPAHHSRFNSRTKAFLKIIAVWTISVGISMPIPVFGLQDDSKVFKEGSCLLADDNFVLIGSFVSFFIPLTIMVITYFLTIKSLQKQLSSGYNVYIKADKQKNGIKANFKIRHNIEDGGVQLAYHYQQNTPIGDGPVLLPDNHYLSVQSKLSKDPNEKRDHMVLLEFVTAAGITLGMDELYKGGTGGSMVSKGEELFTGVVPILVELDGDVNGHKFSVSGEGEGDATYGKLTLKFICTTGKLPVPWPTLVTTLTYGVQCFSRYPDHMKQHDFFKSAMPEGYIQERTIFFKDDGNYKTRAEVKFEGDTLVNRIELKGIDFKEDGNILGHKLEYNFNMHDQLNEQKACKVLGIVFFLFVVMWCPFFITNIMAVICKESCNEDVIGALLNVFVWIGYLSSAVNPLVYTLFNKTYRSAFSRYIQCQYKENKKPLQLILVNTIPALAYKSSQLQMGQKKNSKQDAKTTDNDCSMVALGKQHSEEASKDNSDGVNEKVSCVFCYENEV

With `CN(C)CCc1c[nH]c2ccc(Br)cc12` [5-Br-DMT, 5-bromo-N,N-dimethyltryptamine], the head-twitch response result in experiment [1] (setting [13]) is listed as “failed to induce HTRs at any dose”. In addition, the ligand score result in experiment [2] was “negative”.
Taken in the same sequence, the figures for `CN(C)CCc1c[nH]c2ccc(Cl)cc12` [5-Cl-DMT, 5-chloro-N,N-dimethyltryptamine] were “produced robust HTRs” and “positive”.
Take `CN(C)CCc1c[nH]c2ccc(F)cc12` [5-F-DMT, 5-flouo-N,N-dimethyltryptamine]: in experiment [1] (mouse, in vivo, ip), the head-twitch response result is recorded as “produced robust HTRs”. Also, in experiment [2], the ligand score entry is recorded as “positive”.
Regarding `NCCc1c[nH]c2ccc(O)cc12` [5-HT, serotonin], the “psychLight1 fluorescence response (ΔF/F)” value in experiment [3] is on record as 77.3 ± 2.4%. The compound also displayed a ΔpL2/tdT in experiment [4] of 111.1 ± 1.8%. In [5], the “PSYLI2 fluorescence ΔF/F” value turned out to be 46.3 ± 1.4%, the PSYLI2 response was found to be 44.8 ± 0.8% and the “psychLight2 fluorescence response (ΔF/F)” value is 38.2 ± 2.4%.
The Emax is the greatest response seen or fitted, relative to the assay's reference. Regarding `COc1ccc2[nH]cc(CCN(C)C)c2c1` [5-MeO-DMT, 5-methoxy-N,N-dimethyltryptamine], in experiment [3], the Emax stood at 48.4% and the “psychLight1 fluorescence response (ΔF/F)” value was 48.4 ± 3.1%. The “head-twitch response during fiber photometry” value in experiment [1] (50 mg/kg, i.p., within 1 min of administration, n = 3 animals) was “concomitant increase in HTR”. Further, in experiment [6], the “psychLight2 fluorescence in vivo” value is “sharp increase in fluorescence”. For the same compound, in [5], the “psychLight2 fluorescence response (ΔF/F)” value is recorded as 24.1 ± 4.6%.
Take `COc1ccc2c(CCN(C)C)c[nH]c2c1` [6-MeO-DMT, 6-methoxy-N,N-dimethyltryptamine]: the “competition with / block of 5-HT-induced activation of psychLight” value in experiment [3] was “can compete off 5-HT resulting in a reduction in psychLight fluorescence; also recorded: capable of binding to the receptor despite lacking efficacy”. Besides, the “psychLight1 fluorescence response (ΔF/F)” value in [3] (10 μM, confocal microscope, n = 3) was −1.1 ± 4.6%. In addition, in experiment [5] (10 μM, high content imager (Suppl. Fig. 3C)), the “psychLight2 fluorescence response (ΔF/F)” value is given as −3.0 ± 2.7%.
`COc1ccc2c(ccn2C[C@@H](C)N(C)C)c1` [AAZ-A-154]: the head-twitch response result in experiment [1] (setting [13]) was “failed to produce any head-twitches, even up to doses as high as 100 mg/kg”. The locomotion result in [7] is listed as “only decreases locomotion at a very high dose (100 mg/kg)”. For the same compound, in experiment [8], the “sucrose preference in WT mice” value is listed as “did not modify sucrose preference in the WT animals”. Moreover, the “sucrose preference in VMAT2-HET mice” value in experiment [8] (1% sucrose) is “exhibited a sucrose preference that was indistinguishable from WT controls”. The “persistence of anti-anhedonic effect” value in experiment [8] (VMAT2-HET mice) is “at least 12 days”. The dendritic arbor complexity entry in experiment [9] was “increases dendritic arbor complexity to a comparable extent as the fast-acting antidepressant ketamine”. For the same compound, the “immobility in the forced swim test” value in experiment [10] (20 mg/kg i.p., single administration, n = 12) is “decreased immobility”. Besides, the “onset and duration of antidepressant-like effects in FST” value in [10] (mouse, in vivo) is “both rapid (30 min) and long-lasting (1 week) antidepressant-like effects”.
Regarding `CN(C)CCc1c[nH]c2ccc(O)cc12` [BUFO, N,N-dimethylserotonin], in experiment [5] (setting [14]), the “PSYLI2 fluorescence ΔF/F” value came out at 22.3 ± 2.8%.
Compound `CN(C)CCc1c[nH]c2ccccc12` [DMT, N,N-dimethyltrytamine] registered an Emax in experiment [3] of 12.4%. For the same compound, the EC50 in experiment [3] (read-out: half maximal effective concentration (EC50)) amounted to 627 nM.
Turning to `CNCCc1c[nH]c2ccc(O)cc12` [N-5-HT, N-methylserotonin], the “PSYLI2 fluorescence ΔF/F” value in experiment [5] (setting [14]) worked out at 24.6 ± 1.7%.
On to `CP(C)C.F[P-](F)(F)(F)(F)F.F[P-](F)(F)(F)(F)F.NCCc1c[nH]c2ccc(O)cc12.[Ru+2].c1ccc(-c2ccccn2)nc1.c1ccc(-c2ccccn2)nc1` [RuBi–5-HT], for which, in [4], the Tauoff is 5.4 ± 0.9 ms and the “peak ΔpL2/tdT normalized to baseline” value is listed as 111.2 ± 0.7%.
Turning to `CN1CCc2cccc3c2[C@H]1Cc1ccc(O)c(O)c1-3` [apomorphine, R-(−)-apomorphine hydrochloride hemihydrate], the “Schild regression analysis (pA2)” value in experiment [11] is recorded as “potent psychLight competitive antagonists”.
With `CN(C)CCC[C@@]1(c2ccc(F)cc2)OCc2cc(C#N)ccc21` [escitalopram], the “amplitude of the psychLight2 response ΔF/F” value in experiment [12] worked out at 18.4 ± 4.3%.
Regarding `O=C(c1ccc(F)cc1)C1CCN(CCn2c(=O)[nH]c3ccccc3c2=O)CC1` [ketanserin], in [3], the “competition with / block of 5-HT-induced activation of psychLight” value is on record as “able to block 5-HT-induced activation of psychLight”, the “effect on psychLight1 fluorescence” value is given as “either had minimal effect on psychLight1 fluorescence or slightly quenched the sensor” and the “psychLight1 fluorescence response (ΔF/F)” value is listed as −1.7 ± 0.3%. For the same compound, the “psychLight2 fluorescence in vivo” value in experiment [6] is “decreased”. Moreover, in experiment [5], the PSYLI2 response was −12.7 ± 0.5% and the “psychLight2 fluorescence response (ΔF/F)” value is −3.5 ± 1.6%.
As for `c1ccc(C2(N3CCCCC3)CCCCC2)cc1` [phencyclidine], the ligand score in experiment [2] is given as roughly 0.
Still for that read-out and setting: the same measure for `COC(=O)[C@@H]1C[C@H](OC(C)=O)C(=O)[C@H]2[C@@]1(C)CC[C@H]1C(=O)O[C@H](c3ccoc3)C[C@]21C` [salvinorin A]: roughly 0.
Turning to `NCCc1c[nH]c2ccccc12` [tryptamine], in [5], the “PSYLI2 fluorescence ΔF/F” value is listed as “produces a robust response”.
